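Results reflect a 48-hour exposure of cells in 96-well plates to compound at five concentrations. GI50 is the concentration that inhibits growth by half.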 Calls of active or inactive are those of the source. No stated cut-off is given here; in the data, active = GI50 up to about 1.1 µM and inactive = higher.
Legend:
Test in all cases: NCI-60 cell line screen, 48 h
U-251 = system: U-251
A549 = system: A549
SF-268 = system: SF-268
SR = system: SR
COLO 205 = system: COLO 205
LOX IMVI = system: LOX IMVI
SK-MEL-5 = system: SK-MEL-5
CAKI-1 = system: CAKI-1
OVCAR-8 = system: OVCAR-8
OVCAR-5 = system: OVCAR-5
Malme-3M = system: Malme-3M
OVCAR-4 = system: OVCAR-4
RPMI-8226 = system: RPMI-8226
IGROV-1 = system: IGROV-1
NCI-H460 = system: NCI-H460
SK-MEL-2 = system: SK-MEL-2
HCC 2998 = system: HCC 2998
SNB-19 = system: SNB-19

Measured: GI50

O=C(NC(=O)c1cn(CCNCCO)c(=O)[nH]c1=O)OCc1ccccc1
inactive: U-251 > 100 µM | A549 > 100 µM | SF-268 > 100 µM | SR > 100 µM | COLO 205 > 100 µM | LOX IMVI > 100 µM | SK-MEL-5 > 100 µM | CAKI-1 > 100 µM | OVCAR-8 > 100 µM | OVCAR-5 > 100 µM | Malme-3M > 100 µM | OVCAR-4 > 100 µM | RPMI-8226 > 100 µM | IGROV-1 > 100 µM | NCI-H460 > 100 µM

CC(=O)Nc1ccc(-c2nnc(SCC(=O)Nc3ccc(Cl)cc3)o2)cc1
inactive: U-251 3.38 µM | A549 16.8 µM | SK-MEL-2 17.5 µM | SF-268 4.53 µM | HCC 2998 17 µM | COLO 205 17.6 µM | SNB-19 20 µM | LOX IMVI 5.33 µM | SK-MEL-5 5.69 µM | CAKI-1 18 µM | OVCAR-8 12.5 µM | OVCAR-5 16.4 µM | Malme-3M 13.6 µM | OVCAR-4 13.1 µM | RPMI-8226 6.89 µM | IGROV-1 12.2 µM | NCI-H460 10 µM

CC(=O)O[C@H]1CC[C@@]2(C)C(=CC[C@@H]3C2CC[C@]2(C)Nc4nc5ccccc5cc4CC32)C1 (stereo not given in full)
inactive: U-251 2.67 µM | A549 3.34 µM | SK-MEL-2 17 µM | SF-268 4.2 µM | HCC 2998 2.98 µM | COLO 205 7.66 µM | SNB-19 2.97 µM | SK-MEL-5 4.1 µM | CAKI-1 4.28 µM | OVCAR-8 3.13 µM | OVCAR-5 13.9 µM | Malme-3M 6.55 µM | OVCAR-4 8.53 µM | RPMI-8226 8.65 µM | IGROV-1 11.7 µM | NCI-H460 4.57 µM

CC(C)(c1ccccc1)c1ccc(Oc2ccc3c(c2)-c2nc-3nc3[nH]c(nc4nc(nc5[nH]c(n2)c2ccc(Oc6ccc(C(C)(C)c7ccccc7)cc6)cc52)-c2cc(Oc5ccc(C(C)(C)c6ccccc6)cc5)ccc2-4)c2ccc(Oc4ccc(C(C)(C)c5ccccc5)cc4)cc32)cc1
inactive: U-251 71.3 µM | A549 > 100 µM | SK-MEL-2 > 100 µM | HCC 2998 > 100 µM | COLO 205 > 100 µM | SNB-19 92 µM | LOX IMVI > 100 µM | SK-MEL-5 > 100 µM | OVCAR-8 > 100 µM | OVCAR-5 > 100 µM | Malme-3M > 100 µM | RPMI-8226 > 100 µM | IGROV-1 > 100 µM | NCI-H460 > 100 µM

O=C(/C=C/c1ccccc1O)c1ccccc1Cl
inactive: U-251 39.9 µM | A549 > 100 µM | SK-MEL-2 61.5 µM | SF-268 44.5 µM | HCC 2998 38.1 µM | SR 27.7 µM | COLO 205 33 µM | SNB-19 45.1 µM | LOX IMVI 24.9 µM | SK-MEL-5 42.3 µM | CAKI-1 49.8 µM | OVCAR-8 58.6 µM | OVCAR-5 > 100 µM | Malme-3M > 100 µM | OVCAR-4 19.2 µM | IGROV-1 32.6 µM | NCI-H460 34 µM

COc1c2c(c(OC)c3c(=O)cc(C/C(=N/NC(=O)C[n+]4ccccc4)C(=O)Nc4cc(C)ccc4C)oc13)OCO2
inactive: U-251 > 100 µM | A549 > 100 µM | SK-MEL-2 > 100 µM | SF-268 > 100 µM | HCC 2998 > 100 µM | COLO 205 > 100 µM | SNB-19 > 100 µM | LOX IMVI > 100 µM | SK-MEL-5 > 100 µM | CAKI-1 > 100 µM | OVCAR-8 > 100 µM | OVCAR-5 > 100 µM | Malme-3M > 100 µM | OVCAR-4 > 100 µM | RPMI-8226 > 100 µM | IGROV-1 > 100 µM | NCI-H460 > 100 µM

CCCC(C)n1c(C)nc2c1C(=O)c1ccccc1C2=O (stereo not given)
inactive: U-251 12.2 µM | A549 21 µM | SK-MEL-2 20.7 µM | SF-268 19.6 µM | HCC 2998 40.4 µM | SR > 100 µM | COLO 205 23.3 µM | SNB-19 37 µM | LOX IMVI 8.71 µM | SK-MEL-5 13.3 µM | OVCAR-8 22.8 µM | Malme-3M 23.8 µM | OVCAR-4 36.1 µM | IGROV-1 37.4 µM | NCI-H460 4.6 µM

Cc1nc2c(n1CCN(C)C)C(=O)c1ccccc1C2=O
inactive: U-251 14.5 µM | A549 18.8 µM | SK-MEL-2 12.2 µM | SF-268 22 µM | HCC 2998 19.7 µM | SR 11.7 µM | COLO 205 4.47 µM | SNB-19 27.7 µM | LOX IMVI 14.9 µM | SK-MEL-5 7.45 µM | OVCAR-8 17.2 µM | Malme-3M 2.84 µM | OVCAR-4 15.6 µM | IGROV-1 13.4 µM | NCI-H460 9.84 µM

CCOc1ccccc1NC(=O)C(=O)c1c(O)c2ccc(O)cc2oc1=O
inactive: U-251 > 100 µM | A549 > 100 µM | SK-MEL-2 > 100 µM | SF-268 > 100 µM | HCC 2998 > 100 µM | SR > 100 µM | COLO 205 > 100 µM | SNB-19 > 100 µM | LOX IMVI > 100 µM | SK-MEL-5 > 100 µM | CAKI-1 > 100 µM | OVCAR-8 > 100 µM | OVCAR-5 > 100 µM | Malme-3M > 100 µM | OVCAR-4 > 100 µM | IGROV-1 > 100 µM | NCI-H460 > 100 µM

COc1c(CC(C)=O)ccc2c1C(=O)c1ccc(C=O)c(OC(C)=O)c1C2=O
inactive: U-251 13.9 µM | A549 31.8 µM | SK-MEL-2 15.2 µM | SF-268 4.38 µM | HCC 2998 11.5 µM | COLO 205 16.1 µM | SNB-19 19.9 µM | LOX IMVI 14.3 µM | SK-MEL-5 14.1 µM | CAKI-1 17.8 µM | OVCAR-8 9.51 µM | OVCAR-5 15.3 µM | Malme-3M 12.7 µM | OVCAR-4 14.6 µM | RPMI-8226 8.45 µM | IGROV-1 18.9 µM | NCI-H460 23.3 µM

Cc1ccc(S(=O)(=O)N/N=C/c2oc(-c3ccncc3)c(-c3ccncc3)c2[N+](=O)[O-])cc1
inactive: U-251 > 100 µM | A549 > 100 µM | SK-MEL-2 > 100 µM | SF-268 > 100 µM | HCC 2998 > 100 µM | SR > 100 µM | COLO 205 > 100 µM | SNB-19 > 100 µM | LOX IMVI > 100 µM | SK-MEL-5 > 100 µM | CAKI-1 > 100 µM | OVCAR-8 > 100 µM | OVCAR-5 > 100 µM | Malme-3M > 100 µM | OVCAR-4 > 100 µM | IGROV-1 > 100 µM | NCI-H460 > 100 µM

CCN1C(=O)C(=CN)C(=O)N(CC)C1=O
inactive: U-251 10 µM | A549 > 100 µM | SK-MEL-2 > 100 µM | SF-268 > 100 µM | HCC 2998 > 100 µM | COLO 205 > 100 µM | SNB-19 > 100 µM | LOX IMVI > 100 µM | SK-MEL-5 > 100 µM | CAKI-1 > 100 µM | OVCAR-8 > 100 µM | OVCAR-5 > 100 µM | Malme-3M > 100 µM | OVCAR-4 > 100 µM | IGROV-1 > 100 µM | NCI-H460 > 100 µM

CC1CCC(C(C)(C)c2ccccc2)C(=O)C1 (stereo not given)
inactive: U-251 > 100 µM | A549 > 100 µM | SK-MEL-2 > 100 µM | SF-268 > 100 µM | HCC 2998 > 100 µM | COLO 205 > 100 µM | SNB-19 > 100 µM | LOX IMVI > 100 µM | SK-MEL-5 > 100 µM | CAKI-1 74.8 µM | OVCAR-8 > 100 µM | OVCAR-5 > 100 µM | Malme-3M > 100 µM | OVCAR-4 > 100 µM | RPMI-8226 95.3 µM | IGROV-1 > 100 µM | NCI-H460 > 100 µM

COC(=O)CCC(NC(=S)N/N=C(\C)c1ccccn1)C(=O)OC (stereo not given)
inactive: U-251 53.2 µM | A549 66.8 µM | SK-MEL-2 > 100 µM | SF-268 52.1 µM | HCC 2998 > 100 µM | SR > 10 µM | COLO 205 30 µM | SNB-19 > 100 µM | LOX IMVI 44.2 µM | SK-MEL-5 40.5 µM | OVCAR-8 66.8 µM | OVCAR-5 25.9 µM | Malme-3M 45.4 µM | OVCAR-4 > 100 µM | RPMI-8226 44.4 µM | IGROV-1 82.8 µM | NCI-H460 65.8 µM

Cc1[nH]c2ccccc2c1C1CC(=O)NC1=O (stereo not given)
inactive: U-251 > 100 µM | A549 > 100 µM | SK-MEL-2 > 100 µM | HCC 2998 > 100 µM | SK-MEL-5 > 100 µM | CAKI-1 > 100 µM | OVCAR-8 > 100 µM | OVCAR-5 > 100 µM | Malme-3M > 100 µM | OVCAR-4 > 100 µM | RPMI-8226 > 100 µM | IGROV-1 > 100 µM | NCI-H460 > 100 µM

C=CCO[C@H]1CC[C@@]2(C)C(CC[C@]3(C)C2CC=C2[C@@H]4[C@@H](C)C(C)CC[C@]4(C(=O)O)CCC23C)C1(C)C (stereo not given in full)
inactive: U-251 16.1 µM | A549 16.4 µM | SF-268 19.2 µM | HCC 2998 17.1 µM | SR 13.8 µM | COLO 205 16 µM | SNB-19 17.1 µM | LOX IMVI 13.5 µM | SK-MEL-5 16.5 µM | CAKI-1 17.9 µM | OVCAR-8 18.4 µM | Malme-3M 19.5 µM | OVCAR-4 17.6 µM | IGROV-1 16.6 µM | NCI-H460 17.5 µM

From ChEMBL document CHEMBL1201862, “PubChem BioAssay data set” (2004)
